Test results reported in PubChem BioAssay AID1963436 (Molecular Pharmacology Branch, DTP, NCI, 2024).

Tested on: OVCAR-5 complex spheroid (HUVEC/MSC), viability % T/C
Test: Anticancer human tumor OVCAR-5 cell line growth inhibition [Asc];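 also: spheroids exposed to agents for 7 days before readout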;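 as to viability, T/C: 100% = DMSO vehicle-treated wells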
Conditions: for IC50: curve of first compound; for viability, T/C: stronger effect = lower value
Summary of the method: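 Tumor cells were grown as complex spheroids with human endothelial cells (HUVEC) and human mesenchymal stem cells as stroma. Agents were tested alone and in combination, in half-log steps down from the clinical Cmax, or from 10 microM where Cmax was unknown.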

[1] = second compound 0.1 µM, first compound 0.0316 µM
[2] = second compound 0.1 µM, first compound 0.1 µM
[3] = second compound 0.1 µM, first compound 0.316 µM
[4] = second compound 0.1 µM, first compound 1 µM
[5] = second compound 0.316 µM, first compound 0.0316 µM
[6] = second compound 0.316 µM, first compound 0.1 µM
[7] = second compound 0.316 µM, first compound 0.316 µM
[8] = second compound 0.316 µM, first compound 1 µM
[9] = second compound 1 µM, first compound 0.0316 µM
[10] = second compound 1 µM, first compound 0.1 µM
[11] = second compound 1 µM, first compound 0.316 µM
[12] = second compound 1 µM, first compound 1 µM
[13] = second compound 3.16 µM, first compound 0.0316 µM
[14] = second compound 3.16 µM, first compound 0.1 µM
[15] = second compound 3.16 µM, first compound 0.316 µM
[16] = second compound 3.16 µM, first compound 1 µM
[17] = second compound 10 µM, first compound 0.0316 µM
[18] = second compound 10 µM, first compound 0.1 µM
[19] = second compound 10 µM, first compound 0.316 µM
[20] = second compound 10 µM, first compound 1 µM

| Structure (SMILES) | IC50 (second compound 0.1 µM) [nM] | IC50 (second compound 0.316 µM) [nM] | IC50 (second compound 1 µM) [nM] | IC50 (second compound 3.16 µM) [nM] | IC50 (second compound 10 µM) [nM] | viability, T/C [1] [%] | viability, T/C [2] [%] | viability, T/C [3] [%] | viability, T/C [4] [%] | viability, T/C [5] [%] | viability, T/C [6] [%] | viability, T/C [7] [%] | viability, T/C [8] [%] | viability, T/C [9] [%] | viability, T/C [10] [%] | viability, T/C [11] [%] | viability, T/C [12] [%] | viability, T/C [13] [%] | viability, T/C [14] [%] | viability, T/C [15] [%] | also measured |
| --- | --- | --- | --- | --- | --- | --- | --- | --- | --- | --- | --- | --- | --- | --- | --- | --- | --- | --- | --- | --- | --- |
| C=CC(=O)N1CCN(c2nc(=O)n(-c3c(C)ccnc3C(C)C)c3nc(-c4c(O)cccc4F)c(F)cc23)C(C)C1 (stereo not given) + Cc1c(S(C)(=O)=O)c(-c2cc(F)cc(N3CCN(c4ccc(NS(=O)(=O)c5ccc(NC(CCN6CCC(C(=O)OCCCP(=O)(O)O)CC6)CSc6ccccc6)c(S(=O)(=O)C(F)(F)F)c5)cc4)CC3)c2)c(-c2ccc(Cl)cc2)n1C(C)C | > 10000 | > 10000 | > 10000 | > 10000 | > 10000 | 100 | 109 | 98.7 | 111 | 93.4 | 103 | 95.5 | 96.9 | 89.8 | 101 | 111 | 98.2 | 95.4 | 102 | 109 | viability, T/C (second compound 0.1 µM, first compound 3.16 µM): 114%; viability, T/C (second compound 0.1 µM, first compound 10 µM): 97.5%; viability, T/C (second compound 0.316 µM, first compound 3.16 µM): 112%; viability, T/C (second compound 0.316 µM, first compound 10 µM): 102%; viability, T/C (second compound 1 µM, first compound 3.16 µM): 97.5%; viability, T/C (second compound 1 µM, first compound 10 µM): 106%; viability, T/C [16]: 103%; viability, T/C (second compound 3.16 µM, first compound 3.16 µM): 108%; viability, T/C (second compound 3.16 µM, first compound 10 µM): 98.1%; viability, T/C [17]: 119%; viability, T/C [18]: 136%; viability, T/C [19]: 142%; viability, T/C [20]: 139%; viability, T/C (second compound 10 µM, first compound 3.16 µM): 144%; viability, T/C (second compound 10 µM, first compound 10 µM): 145% |
| COc1c(OCCCN2CCOCC2)ccc2c3n(c(=NC(=O)c4cnc(N)nc4)nc12)CCN3 + Cc1c(S(C)(=O)=O)c(-c2cc(F)cc(N3CCN(c4ccc(NS(=O)(=O)c5ccc(NC(CCN6CCC(C(=O)OCCCP(=O)(O)O)CC6)CSc6ccccc6)c(S(=O)(=O)C(F)(F)F)c5)cc4)CC3)c2)c(-c2ccc(Cl)cc2)n1C(C)C | 28 | 18.1 | 17.9 | 15.4 | 17.7 | 46.5 | 22 | 14.2 | 5.21 | 37 | 20.3 | 9.08 | 2.87 | 35.3 | 10.8 | 5.94 | 2.46 | 29.7 | 10.2 | 3.29 | viability, T/C (second compound 0.1 µM, first compound 0.00316 µM): 81.8%; viability, T/C (second compound 0.1 µM, first compound 0.01 µM): 73.3%; viability, T/C (second compound 0.316 µM, first compound 0.00316 µM): 74.7%; viability, T/C (second compound 0.316 µM, first compound 0.01 µM): 63.4%; viability, T/C (second compound 1 µM, first compound 0.00316 µM): 68.8%; viability, T/C (second compound 1 µM, first compound 0.01 µM): 65.4%; viability, T/C (second compound 3.16 µM, first compound 0.00316 µM): 64.5%; viability, T/C (second compound 3.16 µM, first compound 0.01 µM): 63.7%; viability, T/C [16]: 1.07%; viability, T/C (second compound 10 µM, first compound 0.00316 µM): 86.5%; viability, T/C (second compound 10 µM, first compound 0.01 µM): 68.7%; viability, T/C [17]: 31.2%; viability, T/C [18]: 7.93%; viability, T/C [19]: 2.43%; viability, T/C [20]: 1.35% |
